“Also recorded” adds a separate entry of the source.
Experiments:
AR-positive PCa cells = experiment: Prostate cancer cell growth and survival (cell viability / cell growth); format: cell-based, human; conditions: for inhibition of AR-positive PCa cell growth and survival: different cell line models; for growth-inhibitory effect in prostate cancer cells: cell viability, 4 d (FIGS. 7B, 7C)
Procedure: (§1) For cell viability, cells were seeded in 96-well plates at 1500-2500 cells per well (optimum density for growth) in a total volume of 100 μl media. Serially diluted compounds in […] of media were added to the cells 12 hours later. After 4 days of incubation, Cell-Titer GLO reagents (Promega) were added and luminescence was measured on GLOMAX microplate luminometer (Promega), according to the manufacturer's instructions. All experimental points were set up as sextuplicate as biological replication and the entire experiments were repeated three times. The data are presented as percentage of viable cells with vehicle treated cells set as 100. The estimated in vitro IC50 values were calculated using GraphPad Prism 6 software.
(§2) For apoptosis, Terminal deoxynucleotidyl transferase-mediated dUTP nick end labeling (TUNEL) was performed by using in situ cell death detection kit (Roche) as previously described^56. The results are expressed as a percentage of apoptotic cell number/total cell number. Caspase-3/7 activity was measured using a luminescent caspase-Glo 3/7 assay kit (Promega Corporation, Madison, USA) following the manufacturer's instructions. For cell growth, cells were seeded in 6-well plates at 2×10^5 per well and treated as indicated. Total viable cell numbers were counted using a Coulter cell counter. For colony formation, 800 cells were seeded in a well of 6-well plates and cultured for 14 days with the medium changed every 3 days. When the cell clone grew visible, the medium was removed and the cells were fixed with […] formalin for 10 minutes. Then the plates were washed with PBS for two times and the cell colonies were stained with 0.2% crystal violet (in 10% formalin) for 15 minutes. The numbers of cell colonies were counted after washed 5 times by PBS. The above assays were performed in triplicates and the entire experiments were repeated three times.

AR-negative PCa cells = experiment: Prostate cancer cell growth and survival, AR-negative cells; format: cell-based, human
Procedure: as §1, §2

breast cancer cells = experiment: CellTiter-GLO viability, breast cancer cells; format: cell-based, human; conditions: for growth and survival of breast cancer cells: cells having different major molecular features, 4 days
Procedure: as §1
(§3) Using a CellTiter-GLO assay, the viability of cells of different cancer types was measured after treatment with different concentrations of RORγ small molecule inhibitors for 4 days.

[1] = tested on: OVCAR420, T24, ECC1, HepG2, Hep3B, T98G, SUDHL4, SUDHL6, HCT116 and docetaxel-resistant C4-2B cells; experiment: CellTiter-GLO viability, cells of other cancer types; format: cell-based, human; conditions: ovarian OVCAR420, bladder T24, endometrial ECC1, liver HepG2 and Hep3B, glioblastoma T98G, DLBCL SUDHL4 and SUDHL6, colon HCT116, docetaxel-resistant C4-2B; 4 days
Procedure: as §1, §3

lung cancer cells = experiment: CellTiter-GLO viability, lung cancer cells; format: cell-based, human; conditions: NSCLC cells: KRAS mutant (A427, Calu1, A549, H23, H358), BRAF mutant (H1666), EGFR mutant (HCC827, PC-9), Erlotinib-resistant (A427, H1975); 4 days
Procedure: as §1, §3

MCF-7-TamR cell line = experiment: Growth of tamoxifen-resistant breast cancer cells; format: cell-based, human
Procedure: as §3

[2] = tested on: ER-positive cells, such as MCF-7 and T47D; experiment: CellTiter-GLO viability, ER-positive breast cancer cells; format: cell-based; conditions: Homo sapiens, 96 h; ER-positive cells MCF-7 and T47D, treated for 4 days
Procedure: as §1, §3

[3] = tested on: TNBC cells including MDA-MB468, MDA-MB231, BT20, SUM149, and HCC1937; experiment: CellTiter-GLO viability, triple-negative breast cancer cells; format: cell-based; conditions: Homo sapiens, 96 h, treated for 4 days
Procedure: as §1, §3

[4] = tested on: HER2-positive cells, such as SKBR3 and HCC1954; experiment: CellTiter-GLO viability, HER2-positive breast cancer cells; format: cell-based, human; conditions: SKBR3 and HCC1954, 4 days
Procedure: as §1, §3

AR = experiment: ARE reporter gene assay (5xARE-tk-luc) in 22Rv1 cells; format: cell-based, human
Procedure: Transient transfection and reporter gene assays were performed as previously described^49 with the following modifications. ARE reporter gene assays were performed by transfecting 22Rv1 cells with 5×ARE-tk-luc, pcDNA3.1-hAR and pCMV-β-gal for normalization. For transfection with constructs omitted for specific gene expression, corresponding empty vectors were used to ensure equal amount of total DNA used. Briefly, 22Rv1 cells seeded in 96-well plates in hormone-deprived medium supplemented with 10% cds-FBS (Hyclone) were transfected with lipofectamine 2000 (Life technology, Carlsbad, Calif., USA) and the indicated plasmid DNA. Cells were then treated at 12 hours after transfection with 3 nm R1881, indicated concentrations of RORγ antagonists or ENZ for another 24 hours before harvested for β-gal and luciferase assays. For RORE reporter gene assays, 4×AR-RORE-tk-luc was constructed by inserting four copies of the newly identified AR-RORE TTCTGGGTCA (SEQ ID NO: 1) into tk-luciferase reporter vector. AR-RORE mutant form (AR-RORE mut) contains sequences mutated from TTCTGGGTCA (SEQ ID NO: 1) to TTCTGAACGA (SEQ ID NO: 2). […] The luciferase and β-galactosidase were then analyzed with a Luciferase Assay Substrate (Promega) and Luminescent β-galactosidase Detection Kit II (Clontech). […]

22Rv1 xenografts = experiment: 22Rv1 xenograft tumor growth; format: in vivo, mice
Procedure: Four-week-old male SCID C.B17 mice (for C4-2B and VCaP) or BALB/c nu/nu athymic mice (for 22Rv11 and PC-3) were purchased from Harlan Inc. For establishing tumors, 2×10^6 cells were suspended in total of 100 μL PBS/Matrigel (1:1) and implanted subcutaneously into the dorsal flank on both sides of the mice. Animal group size of six or more was estimated to have a high statistic power, based on power calculation (http://www.biomath.info/power/) and previous studies involving the same xenograft models^34,68. When the tumor volume was approximately 80 mm^3, the mice were randomized and then treated intraperitoneally (i.p.) with 100 μl of either vehicle or RORγ antagonists SR2211, XY011/8k (in a formulation of 15% Cremophor EL, Calbiochem, 82.5% PBS, and 2.5% DMSO) for five times per week. Tumor growth was monitored by calipers with volume calculated using the equation: (π/6 (length×width2)). Body weight during the course of the study was also monitored. At the end of the studies mice were killed and tumors were dissected and weighed. Additionally, prostate, seminal vesicle, testis, kidney, heart, lung, liver, epididymal fat pad and spleen were harvested and weighed. To assess the effect of combining RORγ antagonists and ENZ on the growth of castrated-resistant VCaP xenografts (CRPC-VCaP), first, SCID C.B17 mice were injected with VCaP cells as above to establish the tumors. Then, mice bearing tumors of approximately 180 mm^3 were surgically castrated. They were then observed for tumor regression. Once tumors grew back to the pre-castration size, mice were randomized and treated with vehicle, 5 mg kg^−1 SR2211, 10 mg […] ENZ or a combination of 5 mg kg^−1 SR2211 and 10 mg kg^−1 ENZ. ENZ was given by oral gavage as previously described^68 and SR2211 was administered i.p as above. Mice were excluded from the study if bearing no tumor or tumor with size twice larger or smaller than the mean, at the time of randomization.

AR and AR-V7 = experiment: AR and AR variant expression (immunoblotting, qRT-PCR); format: cell-based, human
Procedure: Total RNA was isolated from cells in 6-well or 10-cm plates or from xenograft tumors, and the cDNA was prepared, amplified and measured in the presence of SYBR as previously^49. Briefly, the fluorescent values were collected and a melting curve analysis was performed. Fold difference was calculated as described previously^49. The experiments were performed at least three times with data presented as mean values±s.d. Cell lysates were analyzed by immunoblotting with antibodies specifically recognizing RORγ, AR, AR-V7 and the indicated proteins. The PCR primers and all the antibodies used in this study are described in the Tables 3 and 4.

Compound: CCN1C(=O)c2cccc3c(S(=O)(=O)Nc4ccc5ccncc5c4)ccc1c23 [6f, 1-Ethyl-N-(isoquinolin-7′-yl)-2-oxo-1,2-dihydrobenzo[cd]indole-6-sulfonamide]
- inhibition of AR-positive PCa cell growth and survival (AR-positive PCa cells): potent inhibition of AR-positive PCa cell growth and survival
- inhibition of cell growth and survival in AR-negative cells (AR-negative PCa cells): not in the AR-negative cells

Compound: CCN1C(=O)c2cccc3c(S(=O)(=O)Nc4ccc(/N=N/c5ccccc5)cc4)ccc1c23 [7k, (E)-1-ethyl-2-oxo-N-(4′-(phenyldiazenyl)phenyl)-1,2-dihydrobenzo[cd]indole-6-sulfonamide]
- inhibition of AR-positive PCa cell growth and survival (AR-positive PCa cells): potent inhibition of AR-positive PCa cell growth and survival
- inhibition of cell growth and survival in AR-negative cells (AR-negative PCa cells): not in the AR-negative cells

Compound: CC(=O)N1CCN(c2ccc(CN3[C@@H](C)CC[C@H](c4ccccc4)S3(=O)=O)c(F)c2)CC1 [GNE3500]
- growth and survival of different breast cancer cells (breast cancer cells; HER2-positive HCC1954, TNBC MDA-MB468 and MDA-MB231, radiation-resistant MCF-7-C6): significant inhibition

Compound: NS(=O)(=O)c1ccc(CC(=O)Nc2cc(Cl)c(-c3ccccc3OC(F)(F)F)c(Cl)c2)cc1 [GSK9b, N-(2,6-dichloro-2′-trifluoromethoxy)-[1,1′-biphenyl]-4-yl-2-(4-sulfamoylphenyl)acetamide]
- growth and survival of cancer cells of other types [1]: significant inhibition of the growth and survival
- growth and survival of breast cancer cells (breast cancer cells): strongly inhibited the growth and survival of breast cancer cells; also recorded: slightly less effective than GSK805

Compound: CCS(=O)(=O)c1ccc(CC(=O)Nc2cc(Cl)c(-c3ccccc3OC(F)(F)F)c(Cl)c2)cc1 [GSK805, N-(3,5-Dichloro-4-(2-(trifluoromethoxy)phenyl)phenyl)-2-(4-ethylsulfonylphenyl)acetamide]
- growth and survival of lung cancer cells (lung cancer cells): strongly inhibited the growth and survival of lung cancer cells
- growth and survival of cancer cells of other types [1]: significant inhibition of the growth and survival
- sensitization of tamoxifen-resistant breast cancer cells to tamoxifen (MCF-7-TamR cell line; MCF-7 TamR cells, in combination with tamoxifen): able to sensitize tamoxifen-resistant breast cancer cells to tamoxifen; also recorded: sensitized MCF-7 TamR cells to tamoxifen
- IC50 [2]: > 10 µM
- IC50 [3]: 1 to 10 µM
- inhibition of HER2-positive cells [4]: relatively strong inhibition
- growth and survival of breast cancer cells (breast cancer cells): strongly inhibited the growth and survival of breast cancer cells

Compound: C[C@]1(O)CC[C@H]2[C@@H]3CCC4=CC(=O)CCC4=C3C=C[C@@]21C [R1881]
- response of multimerized ARE-driven reporter (AR): activated

Compound: CC(=O)N1CCN(Cc2ccc(-c3ccc(C(O)(C(F)(F)F)C(F)(F)F)cc3)cc2)CC1.Cl [SR1555, 1-(4-((4′-(1,1,1,3,3,3-hexafluoro-2-hydroxypropan-2-yl)-[1,1′-biphenyl]-4-yl)methyl)piperazin-1-yl)ethanone, monohydrochloride]
- growth-inhibitory effect in prostate cancer cells (AR-positive PCa cells): significant inhibitory effects with slightly lower potencies
- inhibition of AR-positive PCa cell growth and survival (AR-positive PCa cells): potent inhibition of AR-positive PCa cell growth and survival
- inhibition of cell growth and survival in AR-negative cells (AR-negative PCa cells): not in the AR-negative cells

Compound: CCN1C(=O)c2cccc3c(S(=O)(=O)Nc4ccc(OC)c(OC)c4)ccc1c23 [XY011, N-(3′,4′-dimethoxyphenyl)-1-ethyl-2-oxo-1,2-dihydrobenzo[cd]indole-6-sulfonamide]
- inhibition of AR-positive PCa cell growth and survival (AR-positive PCa cells): potent inhibition of AR-positive PCa cell growth and survival
- inhibition of cell growth and survival in AR-negative cells (AR-negative PCa cells): not in the AR-negative cells
- tumor growth inhibition (22Rv1 xenografts; XY011 20 mg/kg, i.p., 5 times a week (FIG. 23B)): Strong tumor growth inhibition
- growth of xenograft tumors (22Rv1 xenografts; nude mice, SR2211 5 mg/kg i.p., 8k/E11 10 and 20 mg/kg i.p., five times per week (FIG. 3A)): strongly inhibited growth of xenograft tumors
- expression of AR and AR-V7 (AR and AR-V7; C4-2B and VCaP cells, 72 h): potently inhibited the expression of AR and AR-V7 in a dose-dependent manner

Compound: C[C@]12CC[C@H](O)C[C@H]1CC[C@@H]1[C@@H]2CC[C@]2(C)[C@@H](c3ccc(=O)oc3)CC[C@]12O [bufalin]
- AR expression (AR and AR-V7; C4-2B cells treated with bufalin): dose-dependent inhibition of AR expression

Compound: CC/C(=C(\c1ccccc1)c1ccc(OCCN(C)C)cc1)c1ccccc1 [tamoxifen]
- growth inhibitory effect of tamoxifen alone (MCF-7-TamR cell line; MCF-7-TamR, 1 μM of 4(OH)-tamoxifen): did not show any inhibitory effect
- growth inhibitory effect of tamoxifen in combination with RORγ inhibitors (MCF-7-TamR cell line; tamoxifen-resistant breast cancer cells, combined with SR2211 or GSK805): synergistic growth inhibitory effect

Compound: SR3335
- growth-inhibitory effect in prostate cancer cells (AR-positive PCa cells): did not display any significant effect
- inhibition of AR-positive PCa cell growth and survival (AR-positive PCa cells): did not show any significant growth inhibition
